Calls of active or inactive are those of the source.
What was measured:
[1] = biological target: Methylcytosine dioxygenase TET1 (Homo sapiens) (UniProt Q8NFU7); test: Inhibition of recombinant human TET1 catalytic domain assessed as reduction of 5hmC formation at 125 uM using hemi-methylated synthetic oligomer 5'-AATTAGAA[5meC]GCTCCTT-3' as substrate incubated for 30 mins by LC-MS method
[2] = biological target: Methylcytosine dioxygenase TET1 (Homo sapiens) (UniProt Q8NFU7); test: Inhibition of recombinant human TET1 catalytic domain assessed as reduction of 5hmC formation at 125 uM using hemi-methylated synthetic oligomer 5'-AATTAGAA[5meC]GCTCCTT-3' as substrate incubated for 30 mins in presence of CuSO4 by LC-MS method
[3] = biological target: Methylcytosine dioxygenase TET1 (Homo sapiens) (UniProt Q8NFU7); test: Inhibition of recombinant human TET1 catalytic domain assessed as reduction of 5hmC formation at 25 uM incubated for 30 mins by HPLC-ESI-MS/MS method
[4] = biological target: Methylcytosine dioxygenase TET1 (Homo sapiens) (UniProt Q8NFU7); test: Inhibition of recombinant human TET1 assessed as reduction of 5hmC formation at 0.01 to 125 uM incubated for 30 mins in presence of 1 uM CuSO4 by HPLC-ESI-MS/MS method; conditions: dose 0.01-125 µM
[5] = biological target: Methylcytosine dioxygenase TET1 (Homo sapiens) (UniProt Q8NFU7); test: Inhibition of recombinant human TET1 assessed as reduction of 5hmC formation at 0.01 to 125 uM incubated for 30 mins in presence of 4 uM CuSO4 by HPLC-ESI-MS/MS method; conditions: dose 0.01-125 µM
[6] = biological target: Methylcytosine dioxygenase TET2 (Homo sapiens) (UniProt Q6N021); test: Inhibition of recombinant human TET2 catalytic domain assessed as reduction of 5hmC formation at 125 uM using hemi-methylated synthetic oligomer 5'-AATTAGAA[5meC]GCTCCTT-3' as substrate incubated for 30 mins by LC-MS method

Measured: inhibition

Methylcytosine dioxygenase TET1 (Homo sapiens), sequence (Q8NFU7 whole entry, the tested form may be a part): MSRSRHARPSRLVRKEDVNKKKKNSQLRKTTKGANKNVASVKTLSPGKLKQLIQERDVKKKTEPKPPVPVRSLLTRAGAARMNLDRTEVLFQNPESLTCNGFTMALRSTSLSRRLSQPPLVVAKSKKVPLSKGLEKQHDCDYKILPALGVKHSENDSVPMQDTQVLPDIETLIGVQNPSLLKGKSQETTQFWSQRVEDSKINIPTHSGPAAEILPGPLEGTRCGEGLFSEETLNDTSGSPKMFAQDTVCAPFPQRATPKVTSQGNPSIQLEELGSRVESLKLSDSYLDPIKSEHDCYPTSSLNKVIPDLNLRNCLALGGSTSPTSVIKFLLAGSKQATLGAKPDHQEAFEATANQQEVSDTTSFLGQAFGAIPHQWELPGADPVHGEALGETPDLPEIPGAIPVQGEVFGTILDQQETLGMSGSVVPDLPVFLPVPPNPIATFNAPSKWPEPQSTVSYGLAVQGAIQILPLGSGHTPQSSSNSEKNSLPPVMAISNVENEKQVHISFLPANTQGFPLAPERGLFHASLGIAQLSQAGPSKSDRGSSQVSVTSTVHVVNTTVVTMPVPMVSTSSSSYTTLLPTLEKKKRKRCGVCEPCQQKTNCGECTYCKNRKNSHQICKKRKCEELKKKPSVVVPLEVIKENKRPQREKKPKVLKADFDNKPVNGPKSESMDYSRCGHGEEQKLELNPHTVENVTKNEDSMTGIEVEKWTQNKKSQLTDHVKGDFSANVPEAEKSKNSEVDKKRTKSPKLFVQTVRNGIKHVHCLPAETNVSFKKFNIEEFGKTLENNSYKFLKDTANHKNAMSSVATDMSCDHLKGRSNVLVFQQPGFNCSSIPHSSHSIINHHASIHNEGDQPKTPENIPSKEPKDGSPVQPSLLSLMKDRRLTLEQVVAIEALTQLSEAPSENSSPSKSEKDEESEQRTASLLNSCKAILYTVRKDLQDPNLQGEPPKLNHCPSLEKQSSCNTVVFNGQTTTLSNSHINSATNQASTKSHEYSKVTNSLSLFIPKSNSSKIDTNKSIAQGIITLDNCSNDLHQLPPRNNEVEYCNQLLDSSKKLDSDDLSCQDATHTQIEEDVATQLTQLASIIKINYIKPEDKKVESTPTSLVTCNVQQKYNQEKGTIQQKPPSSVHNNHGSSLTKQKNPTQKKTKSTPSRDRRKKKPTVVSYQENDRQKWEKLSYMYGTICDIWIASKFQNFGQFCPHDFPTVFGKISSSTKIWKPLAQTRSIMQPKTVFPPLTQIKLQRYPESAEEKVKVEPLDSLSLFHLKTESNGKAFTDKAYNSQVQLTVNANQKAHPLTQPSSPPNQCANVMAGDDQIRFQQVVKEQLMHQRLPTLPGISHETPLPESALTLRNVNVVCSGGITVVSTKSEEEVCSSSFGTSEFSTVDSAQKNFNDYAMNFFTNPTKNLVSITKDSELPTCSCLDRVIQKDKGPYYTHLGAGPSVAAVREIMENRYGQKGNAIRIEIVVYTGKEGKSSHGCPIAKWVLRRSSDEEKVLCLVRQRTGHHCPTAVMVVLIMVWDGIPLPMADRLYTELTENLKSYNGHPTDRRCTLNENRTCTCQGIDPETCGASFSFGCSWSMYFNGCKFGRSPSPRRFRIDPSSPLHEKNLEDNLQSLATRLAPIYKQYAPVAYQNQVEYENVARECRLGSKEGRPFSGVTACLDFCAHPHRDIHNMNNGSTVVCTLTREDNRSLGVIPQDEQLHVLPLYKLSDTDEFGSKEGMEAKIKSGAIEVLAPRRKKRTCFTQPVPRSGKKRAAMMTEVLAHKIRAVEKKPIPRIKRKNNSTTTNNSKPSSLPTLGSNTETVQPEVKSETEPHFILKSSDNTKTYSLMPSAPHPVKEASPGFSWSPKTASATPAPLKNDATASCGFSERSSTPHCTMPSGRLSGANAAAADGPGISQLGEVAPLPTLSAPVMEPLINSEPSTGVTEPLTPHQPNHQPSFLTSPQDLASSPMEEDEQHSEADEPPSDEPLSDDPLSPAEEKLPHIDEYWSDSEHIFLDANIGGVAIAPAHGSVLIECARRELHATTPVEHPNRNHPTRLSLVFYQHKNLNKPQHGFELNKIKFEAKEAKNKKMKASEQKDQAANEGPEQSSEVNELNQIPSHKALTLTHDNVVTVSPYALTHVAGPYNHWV

Nc1nc(=O)n(-c2cccc(-c3ccccc3)c2)cc1Cl
not listed: [6]
active: all other assays above

CUPRIC SULFATE
active: [1] | [6] | [3]

Reference: ChEMBL document CHEMBL5131531, “Small Molecule Inhibitors of TET Dioxygenases: Bobcat339 Activity Is Mediated by Contaminating Copper(II)” (ACS Med Chem Lett, 2022)
